Laboratory results published in ChEMBL document CHEMBL2086231, “Novel pleuromutilin derivatives as antibacterial agents: synthesis, biological evaluation and molecular docking studies” (2012).
Values after ≈ are worked out from the molar mass of the structure shown.

Key:
Format in all cases: functional
[1] = tested on: Staphylococcus epidermidis; assay: Antibacterial activity against methicillin-resistant Staphylococcus epidermidis isolate cpu3569 after 18 to 20 hrs by agar dilution method
[2] = tested on: Staphylococcus epidermidis; assay: Antibacterial activity against methicillin-resistant Staphylococcus epidermidis isolate cpu2736 after 18 to 20 hrs by agar dilution method
Staphylococcus aureus [3] = assay: Antibacterial activity against methicillin-resistant Staphylococcus aureus isolate cpu1098 after 18 to 20 hrs by agar dilution method
Staphylococcus aureus [4] = assay: Antibacterial activity against methicillin-sensitive Staphylococcus aureus isolate cpu0587 after 18 to 20 hrs by agar dilution method
[5] = tested on: Staphylococcus epidermidis; assay: Antibacterial activity against methicillin-resistant Staphylococcus epidermidis isolate cpu2623 after 18 to 20 hrs by agar dilution method
[6] = tested on: Staphylococcus epidermidis; assay: Antibacterial activity against methicillin-sensitive Staphylococcus epidermidis isolate cpu0347 after 18 to 20 hrs by agar dilution method
Staphylococcus aureus [7] = assay: Antibacterial activity against methicillin-sensitive Staphylococcus aureus isolate cpu1044 after 18 to 20 hrs by agar dilution method
Staphylococcus aureus [8] = assay: Antibacterial activity against methicillin-resistant Staphylococcus aureus isolate cpu0887 after 18 to 20 hrs by agar dilution method
Staphylococcus aureus [9] = assay: Antibacterial activity against methicillin-sensitive Staphylococcus aureus isolate cpu0211 after 18 to 20 hrs by agar dilution method
[10] = tested on: Staphylococcus epidermidis; assay: Antibacterial activity against methicillin-sensitive Staphylococcus epidermidis isolate cpu0315 after 18 to 20 hrs by agar dilution method
[11] = tested on: Staphylococcus epidermidis; assay: Antibacterial activity against methicillin-sensitive Staphylococcus epidermidis isolate cpu1561 after 18 to 20 hrs by agar dilution method
Staphylococcus aureus [12] = assay: Antibacterial activity against methicillin-resistant Staphylococcus aureus isolate cpu0446 after 18 to 20 hrs by agar dilution method
[13] = tested on: Staphylococcus epidermidis; assay: Antibacterial activity against methicillin-resistant Staphylococcus epidermidis isolate cpu3889 after 18 to 20 hrs by agar dilution method
[14] = tested on: Staphylococcus epidermidis; assay: Antibacterial activity against methicillin-sensitive Staphylococcus epidermidis isolate cpu2089 after 18 to 20 hrs by agar dilution method
Staphylococcus aureus [15] = assay: Antibacterial activity against methicillin-sensitive Staphylococcus aureus isolate cpu1344 after 18 to 20 hrs by agar dilution method
Staphylococcus aureus [16] = assay: Antibacterial activity against methicillin-resistant Staphylococcus aureus isolate cpu3256 after 18 to 20 hrs by agar dilution method
Staphylococcus aureus [17] = assay: Antibacterial activity against Staphylococcus aureus
Streptococcus pyogenes = assay: Antibacterial activity against Streptococcus pyogenes
Mycoplasma = assay: Antimicrobial activity against Mycoplasma by serial two fold dilution assay
Brachyspira pilosicoli = assay: Antibacterial activity against Brachyspira pilosicoli

Row | SMILES | MIC [1] [µg/mL] | MIC [2] [µg/mL] | MIC (Staphylococcus aureus [3]) [µg/mL] | MIC (Staphylococcus aureus [4]) [µg/mL] | MIC [5] [µg/mL] | MIC [6] [µg/mL] | MIC (Staphylococcus aureus [7]) [µg/mL] | MIC (Staphylococcus aureus [8]) [µg/mL] | MIC (Staphylococcus aureus [9]) [µg/mL] | MIC [10] [µg/mL] | MIC [11] [µg/mL] | MIC (Staphylococcus aureus [12]) [µg/mL] | MIC [13] [µg/mL] | MIC [14] [µg/mL] | MIC (Staphylococcus aureus [15]) [µg/mL] | MIC (Staphylococcus aureus [16]) [µg/mL] | MIC (Staphylococcus aureus [17]) [µg/mL] | MIC (Streptococcus pyogenes) [µg/mL] | MIC (Mycoplasma) [µg/mL] | MIC (Brachyspira pilosicoli) [µg/mL]
1 | C=C[C@]1(C)C[C@@H](OC(=O)CSCc2csc(NC(=O)CNC3CCCCC3)n2)[C@]2(C)[C@H](C)CC[C@]3(CCC(=O)[C@H]32)[C@@H](C)[C@@H]1O | 0.5 (≈ 0.774 µM) | 1 (≈ 1.55 µM) | 0.25 (≈ 0.387 µM) | 0.25 (≈ 0.387 µM) | 0.25 (≈ 0.387 µM) | 0.5 (≈ 0.774 µM) | 0.5 (≈ 0.774 µM) | 0.5 (≈ 0.774 µM) | 0.25 (≈ 0.387 µM) | 1 (≈ 1.55 µM) | 8 (≈ 12.4 µM) | 0.5 (≈ 0.774 µM) | 1 (≈ 1.55 µM) | 0.25 (≈ 0.387 µM) | 0.5 (≈ 0.774 µM) | 0.5 (≈ 0.774 µM) | – | – | – | –
2 | C=C[C@]1(C)C[C@@H](OC(=O)CSCc2csc(NC(=O)CNCC(=O)OC)n2)[C@]2(C)[C@H](C)CC[C@]3(CCC(=O)[C@H]32)[C@@H](C)[C@@H]1O | 0.5 (≈ 0.786 µM) | 0.5 (≈ 0.786 µM) | 0.5 (≈ 0.786 µM) | 0.25 (≈ 0.393 µM) | 0.5 (≈ 0.786 µM) | 0.5 (≈ 0.786 µM) | 0.5 (≈ 0.786 µM) | 1 (≈ 1.57 µM) | 0.25 (≈ 0.393 µM) | 4 (≈ 6.29 µM) | 1 (≈ 1.57 µM) | 1 (≈ 1.57 µM) | 1 (≈ 1.57 µM) | 0.25 (≈ 0.393 µM) | 0.5 (≈ 0.786 µM) | 0.5 (≈ 0.786 µM) | – | – | – | –
3 | CC1(C)S[C@@H]2[C@H](NC(=O)[C@H](N)c3ccc(O)cc3)C(=O)N2[C@H]1C(=O)O [AMOXICILLIN] | 8 (≈ 21.9 µM) | 0.125 (≈ 0.342 µM) | 4 (≈ 10.9 µM) | 2 (≈ 5.47 µM) | 8 (≈ 21.9 µM) | 8 (≈ 21.9 µM) | 1 (≈ 2.74 µM) | 0.125 (≈ 0.342 µM) | 4 (≈ 10.9 µM) | 0.125 (≈ 0.342 µM) | 0.125 (≈ 0.342 µM) | 4 (≈ 10.9 µM) | 8 (≈ 21.9 µM) | 0.125 (≈ 0.342 µM) | 1 (≈ 2.74 µM) | 8 (≈ 21.9 µM) | – | – | – | –
4 | C=C[C@]1(C)C[C@@H](OC(=O)CS[C@@H]2C[C@H]3CC[C@@H](C2)N3C)[C@]2(C)[C@H](C)CC[C@]3(CCC(=O)[C@H]32)[C@@H](C)[C@@H]1O [RETAPAMULIN] | – | – | – | – | – | – | – | – | – | – | – | – | – | – | – | – | 0.12 (≈ 0.232 µM) | 0.016 (≈ 0.0309 µM) | – | –
5 | C=C[C@]1(C)C[C@@H](OC(=O)CSCCN(CC)CC)[C@]2(C)[C@H](C)CC[C@]3(CCC(=O)[C@H]32)[C@@H](C)[C@@H]1O [TIAMULIN] | 0.25 (≈ 0.506 µM) | 0.0625 (≈ 0.127 µM) | 2 (≈ 4.05 µM) | 8 (≈ 16.2 µM) | 1 (≈ 2.03 µM) | 0.5 (≈ 1.01 µM) | 8 (≈ 16.2 µM) | 0.5 (≈ 1.01 µM) | 2 (≈ 4.05 µM) | 0.0625 (≈ 0.127 µM) | 0.0625 (≈ 0.127 µM) | 2 (≈ 4.05 µM) | 1 (≈ 2.03 µM) | 0.5 (≈ 1.01 µM) | 2 (≈ 4.05 µM) | 2 (≈ 4.05 µM) | – | – | < 1 | –
6 | C=C[C@]1(C)C[C@@H](OC(=O)CSC(C)(C)CNC(=O)[C@H](N)C(C)C)[C@]2(C)[C@H](C)CC[C@]3(CCC(=O)[C@H]32)[C@@H](C)[C@@H]1O [VALNEMULIN] | – | – | – | – | – | – | – | – | – | – | – | – | – | – | – | – | – | – | – | 0.03 (≈ 0.0531 µM)
